The target of data set [1] is p45MEK (GST-MEK) (Homo sapiens, UniProt Q02750). As to the kind of experiment: Cascade assay for inhibitors of the MAP kinase pathway (in vitro). The class given is biochemical. The method, then: Incorporation of ^32P into myelin basic protein (MBP) was assayed in the presence of a glutathione S-transferase fusion protein containing p44MAP kinase (GST-MAPK) and a glutathione S-transferase fusion protein containing p45MEK (GST-MEK). The assay solution contained 20 mM HEPES, pH 7.4, 10 mM MgCl2, 1 mM MnCl2, 1 mM EGTA, 50 μM [γ-^32P]ATP, 10 μg GST-MEK, 0.5 μg GST-MAPK and 40 μg MBP in a final volume of 100 μL. […] Compounds were assessed at 10 μM for ability to inhibit incorporation of ^32P.
To ascertain whether compounds were inhibiting GST-MEK or GST MAPK, two additional protocols were employed. In the first protocol, compounds were added to tubes containing GST-MEK, followed by addition of GST-MAPK, MBP and [γ-^32P]ATP. In the second protocol, compounds were added to tubes containing both GST-MEK and GST-MAPK, followed by MBP and [γ-^32P]ATP.

For data set [2], the system named is murine colon tumor, C26/clone 10. As to the kind of experiment: Murine colon tumor C26/clone 10 implanted subcutaneously in mice. Format: in vivo, Male CD2F1 mice. Conditions: for Change in Body Weight / Non-Specific Deaths: Days 1 through 14. The method, then: Male CD2F1 mice (NCI: Charles River, Kingston) were implanted subcutaneously with tumor fragments (approximately 30 mg) in the region of the right axilla on Day 0. […] The vehicle for the test compound, and for control animals, was 10% EtOH/10% Cremophor-EL (Sigma)/80% H2O, pH 5.0. Tumor volumes were recorded three times per week by measuring the length and width of the individual tumors and calculating mass in milligrams according to the formula (a×b^2)/2, where a and b are the length and width of the tumor. Percent treated/control (T/C) was calculated based on the ratio of the median tumor volume of the treated tumors compared with the median tumor volume of control animals on specified measurement days.

Molecules are shown by their SMILES. Where a name gives a salt, the structure may show the parent alone.

This is an account of results in patent publication US7169816B2, “4-bromo or 4-iodo phenylamino benzhydroxamic acid derivatives and their use as MEK inhibitors” (Warner-Lambert Company, priority 1997, dated 2007).

p45MEK (GST-MEK), sequence (Q02750 whole entry, the tested form may be a part): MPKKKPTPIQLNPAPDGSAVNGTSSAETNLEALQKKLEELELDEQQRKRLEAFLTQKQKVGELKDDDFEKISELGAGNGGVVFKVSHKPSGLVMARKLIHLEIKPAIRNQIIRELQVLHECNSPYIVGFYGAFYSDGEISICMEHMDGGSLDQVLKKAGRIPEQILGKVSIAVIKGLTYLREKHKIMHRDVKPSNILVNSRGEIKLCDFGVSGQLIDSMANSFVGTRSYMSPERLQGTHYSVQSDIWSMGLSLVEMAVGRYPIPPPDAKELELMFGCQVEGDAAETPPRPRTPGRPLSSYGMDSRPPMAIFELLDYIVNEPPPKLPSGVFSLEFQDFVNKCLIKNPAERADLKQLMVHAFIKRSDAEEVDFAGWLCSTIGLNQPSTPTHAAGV

In turn, `Cc1cc(I)ccc1Nc1cc(F)ccc1C(=O)NOCc1cccs1` [Example 62, 4-Fluoro-2-(4-iodo-2-methyl-phenylamino)-N-(thiophen-2-ylmethoxy)-benzamide] registered an IC50 in data set [1] of 86 nM.
As to `Cc1cc(I)ccc1Nc1c(C(=O)NOCc2cccs2)ccc(F)c1F` [Example 63, 3,4-Difluoro-2-(4-iodo-2-methyl-phenylamino)-N-(thiophen-2-ylmethoxy)-benzamide], the IC50 in data set [1] was found to be 19 nM.
Consider `Cc1cc(Br)ccc1Nc1c(C(=O)NOCc2cccs2)ccc(F)c1F` [Example 64, 2-(4-Bromo-2-methyl-phenylamino)-3,4-difluoro-N-(thiophen-2-ylmethoxy)-benzamide], for which the IC50 in data set [1] amounted to 279 nM.
In the case of `C=C(C)CONC(=O)c1ccc(F)cc1Nc1ccc(I)cc1C` [Example 65, 4-Fluoro-2-(4-iodo-2-methyl-phenylamino)-N-(2-methyl-allyloxy)-benzamide], in data set [1], the IC50 amounted to 57 nM. This IC50 lies about 4.9-fold lower than the previous one.
`C=C(C)CONC(=O)c1ccc(F)c(F)c1Nc1ccc(I)cc1C` [Example 66, 3,4-Difluoro-2-(4-iodo-2-methyl-phenylamino)-N-(2-methyl-allyloxy)-benzamide]: the IC50 in data set [1] was 16 nM.
The same measure, in the same setting: then `CC=CCONC(=O)c1ccc(F)cc1Nc1ccc(I)cc1C` [Example 68, N-(But-2-enyloxy)-4-fluoro-2-(4-iodo-2-methyl-phenylamino)-benzamide], with 119 nM.
Turning to `CC=CCONC(=O)c1ccc(F)c(F)c1Nc1ccc(I)cc1C` [Example 69, N-(But-2-enyloxy)-3,4-difluoro-2-(4-iodo-2-methyl-phenylamino)-benzamide], in data set [1], the IC50 was 16 nM.
Consider `CC=CCONC(=O)c1ccc(F)c(F)c1Nc1ccc(Br)cc1C` [Example 70, 2-(4-Bromo-2-methyl-phenylamino)-N-(but-2-enyloxy)-3,4-difluoro-benzamide], for which, in data set [1], the IC50 was determined as 224 nM.
Turning to `C#CCONC(=O)c1ccc(F)c(F)c1Nc1ccc(I)cc1C` [Example 71, 3,4-Difluoro-2-(4-iodo-2-methyl-phenylamino)-N-(prop-2-ynyloxy)-benzamide], it took 15 nM to reach half-maximal inhibition in data set [1] (IC50).
Regarding `CC=CCONC(=O)c1ccc(F)c(F)c1Nc1ccc(I)cc1C` [Example 74, N-(But-2-enyloxy)-3,4-difluoro-2-(4-iodo-2-methyl-phenylamino)-benzamide], the IC50 in data set [1] turned out to be 35 nM.
`Cc1cc(I)ccc1Nc1cc(F)ccc1C(=O)N(O)C(C)C` [Example 78, 4-Fluoro-N-hydroxy-2-(4-iodo-2-methyl-phenylamino)-N-isopropyl-benzamide]: the half-inhibitory concentration (IC50) in data set [1] is 80 nM.
Still for that read-out and setting: then `Cc1cc(I)ccc1Nc1c(C(=O)NOCC2CC2)cc(F)c(F)c1F` [Example 79, N-Cyclopropylmethoxy-3,4,5-trifluoro-2-(4-iodo-2-methyl-phenylamino)-benzamide], with 8 nM; and `Cc1cc(I)ccc1Nc1cc(F)ccc1C(=O)N(C)O` [Example 80, 4-Fluoro-N-hydroxy-2-(4-iodo-2-methyl-phenylamino)-N-methyl-benzamide], with 80 nM.
Consider `Cc1cc(I)ccc1Nc1cc(F)c([N+](=O)[O-])cc1C(=O)NO` [Example 81, 4-Fluoro-N-hydroxy-2-(4-iodo-2-methyl-phenylamino)-5-nitro-benzamide], for which it took 17 nM to reach half-maximal inhibition in data set [1] (IC50). This IC50 lies about 4.7-fold lower than the previous one.
As for `Cc1cc(I)ccc1Nc1c(C(=O)NOC2CCCCO2)ccc(F)c1F` (centres unmarked) [Example 83, 3,4-Difluoro-2-(4-iodo-2-methyl-phenylamino)-N-(tetrahydro-pyran-2-yloxy)-benzamide], the IC50 in data set [1] stood at 31 nM.
With `Cc1cc(I)ccc1Nc1c(C(=O)NOCCN2CCCCC2)cc(Br)c(F)c1F` [Example 85, 3,4-Difluoro-5-bromo-2-(4-iodo-2-methyl-phenylamino)-N-(2-piperidin-1-yl-ethoxy)-benzamide], in data set [1], the IC50 is 24 nM.
Regarding `Cc1cc(I)ccc1Nc1c(C(=O)NOC2CCCCO2)cc(Br)c(F)c1F` (centres unmarked) [Example 86, 5-Bromo-3,4-difluoro-2-(4-iodo-2-methyl-phenylamino)-N-(tetrahydro-pyran-2-yloxy)-benzamide], in data set [1], the IC50 was 47 nM. Compared with the last compound, the IC50 is about 2-fold higher.
In turn, `O=C(NO)c1ccc(F)cc1Nc1ccc(I)cc1Cl` [Example 87, 2-(2-Chloro-4-iodo-phenylamino)-4-fluoro-N-hydroxy-benzamide (HCl salt)] registered an IC50 in data set [1] of less than 1 nM.
Same read-out and setting: then `O=C(NOC1CCCCO1)c1ccc(F)cc1Nc1ccc(I)cc1Cl` (centres unmarked) [Example 88, 2-(2-Chloro-4-iodo-phenylamino)-4-fluoro-N-(tetrahydro-pyran-2-yloxy)-benzamide], with 69 nM.
In data set [1], `O=C(NOC1CCCCO1)c1ccc(F)c(F)c1Nc1ccc(I)cc1Cl` (centres unmarked) [Example 90, 3,4-Difluoro-2-(2-chloro-4-iodo-phenylamino)-N-(tetrahydro-pyran-2-yloxy)-benzamide] returned an IC50 of 55 nM.
Regarding `CN(C)CCONC(=O)c1cc(Br)c(F)c(F)c1Nc1ccc(I)cc1Cl` [Example 91, 5-Bromo-2-(2-chloro-4-iodo-phenylamino)-N-(2-dimethylamino-ethoxy)-3,4-difluoro-benzamide monohydrochloride salt], inhibition in data set [1] was half-maximal at 20 nM (IC50).
Still for that read-out and setting: for `Cc1cc(I)ccc1Nc1c(C(=O)NOCC(C)N(C)C)cc(Br)c(F)c1F` (centres unmarked) [Example 92, 5-Bromo-N-(2-dimethylamino-propoxy)-3,4-difluoro-2-(4-iodo-2-methyl-phenylamino)-benzamide] the value was 33 nM; for `O=C(NOC1CCCCO1)c1cc(Br)c(F)c(F)c1Nc1ccc(I)cc1Cl` (centres unmarked) [Example 94, 5-Bromo-2-(2-chloro-4-iodo-phenylamino)-3,4-difluoro-N-(tetrahydro-pyran-2-yloxy)-benzamide], 38 nM.
Consider `O=C(NOCC1CC1)c1ccc(F)c(F)c1Nc1ccc(I)cc1Cl` [Example 95, 3,4-Difluoro-2-(2-chloro-4-iodo-phenylamino)-N-cyclopropylmethoxy-benzamide], for which the “% Inhibition” value is 59% in data set [2] (IP, 48 mg/kg/day, Day 15); 98% in data set [2] (IP, 77 mg/kg/day, Day 15); 96% in data set [2] (IP, 124 mg/kg/day, Day 15); 100% in data set [2] (IP, 200 mg/kg/day, Day 15); 64% in data set [2] (PO, 71 mg/kg/day, Day 17); 79% in data set [2] (PO, 115 mg/kg/day, Day 17). Besides, the “% Inhibition” value in data set [2] (PO, 186 mg/kg/day, Day 17) turned out to be 75%; in data set [2] (PO, 300 mg/kg/day, Day 17), 83%. Also, the “Change in Body Weight” value is reported as “+3 grams” in data set [2] (IP, 48 mg/kg/day); “+2 grams” in data set [2] (IP, 77 mg/kg/day); “+3 grams” in data set [2] (IP, 124 mg/kg/day); “+2 grams” in data set [2] (IP, 200 mg/kg/day); “+2 grams” in data set [2] (PO, 71 mg/kg/day); “+2 grams” in data set [2] (PO, 115 mg/kg/day). Also, the “Change in Body Weight” value is “+2 grams” in data set [2] (PO, 186 mg/kg/day) and “+2 grams” in data set [2] (PO, 300 mg/kg/day). Also, the “Non-Specific Deaths” value is given as 0/6 in data set [2] (IP, 48 mg/kg/day); 2/5 in data set [2] (IP, 77 mg/kg/day); 1/6 in data set [2] (IP, 124 mg/kg/day); 1/6 in data set [2] (IP, 200 mg/kg/day); 0/6 in data set [2] (PO, 71 mg/kg/day); 1/6 in data set [2] (PO, 115 mg/kg/day). Moreover, the “Non-Specific Deaths” value in data set [2] (PO, 186 mg/kg/day) was 0/6; in data set [2] (PO, 300 mg/kg/day), 0/6.
Compound `O=C(NOCC1CC1)c1cc(Br)c(F)c(F)c1Nc1ccc(I)cc1Cl` [Example 96, 5-Bromo-2-(2-chloro-4-iodo-phenylamino)-N-cyclopropylmethoxy-3,4-difluoro-benzamide] returned an IC50 in data set [1] of less than 10 nM.
Consider `Cc1cc(I)ccc1Nc1c(C(=O)NOCCN2CCOCC2)cc(Br)c(F)c1F` [Example 97, 5-Bromo-3,4-difluoro-2-(4-iodo-2-methyl-phenylamino)-N-(2-morpholin-4-yl-ethoxy)-benzamide], for which the IC50 in data set [1] was 15 nM.
Turning to `CCN(CC)CCONC(=O)c1cc(Br)c(F)c(F)c1Nc1ccc(I)cc1C` [Example 98, 5-Bromo-N-(2-diethylamino-ethoxy)-3,4-difluoro-(4-iodo-2-methyl-phenylamino)-benzamide], in data set [1], the IC50 came out at 25 nM.

For orientation: IC50 means the concentration at which inhibition is half-maximal. A higher IC50 goes with a need for much substance. One may read the % Inhibition as the relative decrease from the control value, in per cent. Low readings indicate little suppression, high ones strong suppression.
